Source: US4962109A, “Insecticidally and acaricidally active pyrimidine esters and intermediates therefor” (Imperial Chemical Industries PLC, priority 1985, dated 1990)

Legend:
Format in all cases: in vivo
[1] = tested on: Myzus persicae (aphids); assay: Contact test on aphids (MP), Chinese Cabbage leaf, mortality; settings: 72 h, 500 ppm, contact, 3 days, read-out: MP grading of mortality
Procedure, shortened: (§1)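 Product dissolved in acetone, diluted in water with 0.01% wetting agent to 500, 250 or 100 ppm; pests and/or host medium (plant or foodstuff) treated. Mortality or knockdown assessed 1–3 days later, graded A (80–100%), B (50–79%) or C (<50%).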

[2] = tested on: Blattella germanica (cockroach nymphs); assay: Residual test on cockroach nymphs (BG/R), Plastic pot, mortality; settings: 72 h, 3 days, read-out: BG/R grading of mortality
Protocol: (§2) The activity of the Product was determined using a variety of insect pests. The Product was used in the form of liquid preparations containing 500, 250 or 100 parts per million (ppm) by weight of the Product. The preparations were made by dissolving the Product in acetone and diluting the solutions with water containing 0.01% by weight of a wetting agent sold under the trade name "LISSAPOL" NX until the liquid preparations contained the required concentration of the Product. "Lissapol" is a Registered Trade Mark.
(§3) The test procedure adopted with regard to each pest was basically the same and comprised supporting a number of the pests on a medium which was usually a host plant or a foodstuff on which the pests feed, and treating either or both the pests and the medium with the preparations. The mortality of the pests was then assessed at periods usually varying from one to three days after the treatment.
(§4) The results of the tests are given in Table III for each of the Products, at the rate in parts per million given in the second column as a grading of mortality designated as A, B or C wherein A indicates 80-100% mortality or knockdown, B indicates 50-79% mortality or knockdown and C indicates less than 50% mortality or knockdown.
BG/R Blattella germanica

[3] = tested on: Tetranychus urticae (spider mites - ova); assay: Contact test on spider mites - ova (TUe), French bean leaf, mortality; settings: 144 h, 500 ppm, contact, 6 days, read-out: TUe grading of mortality
Procedure, shortened: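 Graded read-out: A 80-100%, B 50-79%, C below 50% mortality or knockdown, assessed usually 1-3 days post-treatment. Liquid preparations at 500, 250 or 100 ppm by weight, from acetone solution diluted in water with 0.01% wetting agent, applied to pests and/or their host plant or food medium.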

[4] = tested on: Tetranychus urticae (spider mites - adult); assay: Contact test on spider mites - adult (TUa), French bean leaf, mortality; settings: 72 h, 500 ppm, contact, 3 days, read-out: TUa grading of mortality
Procedure, shortened: as §1

[5] = tested on: Heliothis virescens (tobacco budworm - larvae); assay: Residual test on tobacco budworm larvae (HV), Cotton leaf, mortality; settings: 48 h, read-out: HV grading of mortality
Procedure, shortened: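 Product in acetone diluted with water containing 0.01% Lissapol NX, at 500, 250 or 100 ppm; pests and/or host medium (here cotton leaf) treated. Mortality scored one to three days later, graded A (80-100%), B (50-79%), C (<50%).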

[6] = tested on: Spodoptera exigua (lesser army worm - larvae); assay: Residual test on lesser army worm larvae (SP), Cotton leaf, mortality; settings: 48 h, 500 ppm, residual, * test duration of 3 days, read-out: SP grading of mortality
Procedure, shortened: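 Product dissolved in acetone and diluted in water with 0.01% wetting agent to 500, 250 or 100 ppm; larvae and/or cotton leaf host treated. Mortality or knockdown scored one to three days later and graded A (80-100%), B (50-79%) or C (<50%).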

[7] = tested on: Musca domestica (houseflies - adults); assay: Contact test on houseflies - adults (MD), Cotton wool/sugar, mortality; settings: 24 h, 500 ppm, contact, ** test duration of 1 day, read-out: MD grading of mortality
Procedure, shortened: as §1

[8] = tested on: Diabrotica balteata (rootworm larvae); assay: Residual test on rootworm larvae (DB), Filter paper/maize seed, mortality; settings: 48 h, 500 ppm, residual, * test duration of 3 days, read-out: DB grading of mortality
Procedure, shortened: as §1

[9] = tested on: Nilaparvata lugens (brown plant hopper); assay: Contact test on brown plant hopper (NL), Rice plant, mortality; settings: 72 h, 3 days, read-out: NL grading of mortality
Protocol: as §2, §3, §4

[10] = tested on: Musca domestica (houseflies - adults); assay: Knockdown test on houseflies - adults (MD/KD), Cotton wool/sugar; settings: 500 ppm, 4 hours, read-out: MD/KD grading of knockdown
Procedure, shortened: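 Adult houseflies exposed to the compound at 500, 250 or 100 ppm in acetone/water with 0.01% wetting agent, on a cotton wool/sugar medium. Knockdown and mortality assessed, graded A (80-100%), B (50-79%) or C (<50%).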

[11] = tested on: insect and acarine pests; assay: Biological screening of enantiomers, insecticidal and acaricidal activity; settings: (-) versus (+) enantiomer
[12] = tested on: Nephotettix cincticeps (green leaf hopper - nymphs); assay: Contact test on green leaf hopper nymphs (NC), Rice plant, mortality; settings: 72 h, 500 ppm, contact, * test duration of 3 days, read-out: NC grading of mortality
Procedure, shortened: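 Product dissolved in acetone, diluted in water with 0.01% wetting agent to 500, 250 or 100 ppm; nymphs and/or host rice plants treated. Mortality or knockdown assessed 1–3 days later, graded A (80-100%), B (50-79%), C (<50%).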

Row | Compound | mortality at 500 ppm [1] [%] | mortality at 500 ppm [2] [%] | mortality at 500 ppm [3] [%] | mortality at 500 ppm [4] [%] | mortality at 500 ppm [5] [%] | mortality at 500 ppm [6] [%] | mortality at 500 ppm [7] [%] | mortality at 500 ppm [8] [%] | mortality at 500 ppm [9] [%] | pest or weed control at 500 ppm [10] [%] | insecticidal and acaricidal activity of enantiomers [11] | mortality at 500 ppm [12] [%]
1 | COCc1c(F)c(F)c(COC(=O)C(c2cnc(Cl)nc2)C(C)C)c(F)c1F (racemic) [Compound 118, 2,3,5,6-tetrafluoro-4-(methoxymethyl)benzyl (RS)-2-(2-chloropyrimidin-5-yl)-3-methylbutanoate] | 80 to 100 | < 50 | < 50 | 50 to 79 | 50 to 79 | 50 to 79 | 80 to 100 | < 50 | < 50 | – | – | –
2 | C=CCc1c(F)c(F)c(COC(=O)C(c2cnc(C(Cl)(Cl)Cl)nc2)C(C)C)c(F)c1F (racemic) [Compound 117, 2,3,5,6-tetrafluoro-4-(prop-2-en-1-yl)benzyl (RS)-2-(2-trichloromethylpyrimidin-5-yl)-3-methylbutanoate] | 80 to 100 | 80 to 100 | 80 to 100 | 80 to 100 | 80 to 100 | 80 to 100 | 80 to 100 | 50 to 79 | 80 to 100 | 80 to 100 | – | –
3 | CCC(C(=O)OCc1c(F)c(F)c(C)c(F)c1F)c1cnc(C(C)(C)C)nc1 (racemic) [Compound 122, 2,3,5,6-tetrafluoro-4-methyl (RS)-2-[2-(1,1-dimethylethyl)pyrimidin-5-yl]butanoate] | 80 to 100 | < 50 | < 50 | 80 to 100 | 80 to 100 | 80 to 100 | 80 to 100 | 50 to 79 | < 50 | 80 to 100 | – | –
4 | COCc1c(F)c(F)c(COC(=O)C(c2cnc(C(F)(F)F)nc2)C(C)C)c(F)c1F (racemic) [Compound 116, 2,3,5,6-tetrafluoro-4-(methoxymethyl)benzyl (RS)-2-(2-trifluoromethylpyrimidin-5-yl)-3-methylbutanoate] | 80 to 100 | 80 to 100 | 80 to 100 | 80 to 100 | 80 to 100 | 80 to 100 | 80 to 100 | 80 to 100 | 80 to 100 | 80 to 100 | – | –
5 | COCc1c(F)c(F)c(COC(=O)C(c2cnc(C(C)(C)C)nc2)C(C)(C)C)c(F)c1F (single isomer, unassigned; enantiomer 4) [(-)-enantiomer, 4-(methoxymethyl)-2,3,5,6-tetrafluorobenzyl 2-[2-(1,1-dimethylethyl)pyrimidin-5-yl]-3,3-dimethylbutanoate] | – | – | – | – | – | – | – | – | – | – | substantially greater insecticidal and acaricidal activity than the (+)-enantiomer | –
6 | C=CCc1c(F)c(F)c(COC(=O)C(CC)c2cnc(C(C)(C)C)nc2)c(F)c1F (racemic) [Compound 123, 2,3,5,6-tetrafluoro-4-(prop-2-en-1-yl)benzyl (RS)-2-[2-(1,1-dimethylethyl)pyrimidin-5-yl]butanoate] | 80 to 100 | 50 to 79 | 80 to 100 | 80 to 100 | 80 to 100 | 80 to 100 | 80 to 100 | < 50 | 80 to 100 | 80 to 100 | – | –
7 | C=CCc1c(F)c(F)c(COC(=O)C(c2cnc(N(C)C)nc2)C(C)C)c(F)c1F (racemic) [Compound 115, 2,3,5,6-tetrafluoro-4-(prop-2-en-1-yl)benzyl (RS)-2-[2-(N,N-dimethylamino)pyrimidin-5-yl]-3-methylbutanoate] | 80 to 100 | 80 to 100 | 80 to 100 | 80 to 100 | 80 to 100 | 80 to 100 | 80 to 100 | < 50 | < 50 | < 50 | – | –
8 | C=CCc1c(F)c(F)c(COC(=O)C(c2cnc(-c3ccccc3)nc2)C(C)C)c(F)c1F (racemic) [Compound 113, 4-(prop-2-en-1-yl)-2,3,5,6-tetrafluorobenzyl (RS)-2-[2-phenylpyrimidin-5-yl)-3-methylbutanoate] | 50 to 79 | < 50 | < 50 | < 50 | < 50 | < 50 | 80 to 100 | < 50 | < 50 | 80 to 100 | – | –
9 | CC[C@@H](C(=O)O[C@@H](C#N)c1ccc(F)c(Oc2ccccc2)c1)c1cnc(C(C)(C)C)nc1 (racemic) [Compound 121, (RS)-α-cyano-4-fluoro-3-phenoxybenzyl (RS)-2-[2-(1,1-dimethylethyl)pyrimidin-5-yl]butanoate] | 80 to 100 | < 50 | < 50 | 80 to 100 | 80 to 100 | 80 to 100 | 80 to 100 | 80 to 100 | < 50 | 50 to 79 | – | –
10 | C#CCc1c(F)c(F)c(COC(=O)C(c2cnc(C(C)(C)C)nc2)C(C)(C)C)c(F)c1F (racemic) [Compound 12, 2,3,5,6-tetrafluoro-4-(prop-2-yn-1-yl)benzyl (RS)-2-[2-(1,1-dimethylethyl)pyrimidin-5-yl]-3,3-dimethylbutanoate] | 80 to 100 | 80 to 100 | 80 to 100 | 80 to 100 | 80 to 100 | 80 to 100 | 80 to 100 | 80 to 100 | – | 80 to 100 | – | 80 to 100
